Source: patent US10399966B2, “Compounds for treatment of trypanosomes and neurological pathogens and uses thereof” (The University of North Carolina at Chapel Hill, priority 2016, dated 2019)
“And” between values parts separate entries of the source, which are not always exact repeats. Equal entries are not always repeated. Where two headings read alike, the source gives them in different places.

How the values were obtained:
[1] = Metabolic stability in mouse liver microsomes; assay type: in vitro ADME
[2] = system: T. b. rhodesiense STIB900; assay: Mouse efficacy model of acute T. brucei infection; assay type: in vivo; details: 50 mg/kg po b.i.d. x 4 days from day 2, no detectable parasitemia 60 days post-infection
Procedure: For acute efficacy studies in mice, experiments were carried out using the standard operating procedure used by WHO screening centers and done in compliance with the University of Washington Institutional Animal Care and Use Committee (IACUC) approved protocol. […] The test compound was administered by oral gavage at 50 mg/kg every 12 h from day 2 to day 5, for a total of 8 doses in a 200 μL volume of a vehicle consisting of DMSO (5%), Tween 80 (7%), and EtOH (3%) in physiological saline (0.9%) solution. Parasitemia was monitored via microscopic analysis of tail blood for 60 d post-infection, or until parasites were detected. Mice were removed from the experiment once parasites were detected in the blood. […] Efficacy PK blood samples were collected from three of the five mice prior to dose 7, and at 1 h and 6 h post-dose.

human hepatocytes HepG2 = assay: Cytotoxicity against HepG2 cells
Trypanosoma cruzi = assay: Efficacy against T. cruzi in vitro; assay type: cell-based
Leishmania amazonensis = assay: Antimicrobial activity against Leishmania amazonensis; assay type: cell-based; details: Table 1, Leishmania amazonensis
[3] = Efficacy PK blood samples, chronic model; assay type: in vivo, mouse; details: 50 mg/kg po b.i.d.
Procedure: (§1) In a model of the chronic phase of HAT, compound 1 was administered to five mice infected with T. b. brucei TREU667 at 50 mg/kg/po b.i.d.×10 days, beginning 21 days post-infection. […] Efficacy PK blood samples were collected from three of the five mice prior to dose 15, and at 1 h and 6 h post-dose. Average plasma levels of the test compound were 15.8±8.7 μM (pre-dose), 23.1±603 μM (1 h), and 26.7±7.1 μM (6 h). Compound 1 attained 5/5 cures as determined by the absence of detectable parasitemia in any of the treated mice through 180 days post-infection (FIG. 2). No mice receiving vehicle alone had spontaneous cures.

T. b. brucei TREU667 = assay: Mouse efficacy model of chronic T. brucei infection; assay type: in vivo; details: 50 mg/kg po b.i.d. x 10 days from day 21, no detectable parasitemia through 180 days post-infection, 50 mg/kg
Procedure: For chronic efficacy, experiments were done in compliance with the University of Washington IACUC approved protocol. According to published procedures, groups of 5 mice were infected with 1×10^4 T. b. brucei (strain TREU667) at day 0 to establish a chronic infection. Treatment began on day 21 post-infection, and mice received 50 mg/kg test compound orally b.i.d. for 10 d (total of 20 doses) in a 200 μL volume of a vehicle composed of Phosal 53 MCT (60%), PEG400 (30%) and EtOH (10%). A control group received vehicle with no compound and another control group received a single intraperitoneal dose of diminazene aceturate at 10 mg/kg in water on day 21. […] Post dosing, parasitemia was monitored via microscopic examination of tail blood slides until 180 days post-infection. Mice were removed from the experiment once parasites were detected in the blood.
as §1, with “Average plasma levels of the test compound were 15.8±8.7 μM (pre-dose), 23.1±603 μM (1 h), and 26.7±7.1 μM (6 h).” left out, “No mice receiving vehicle alone had spontaneous cures.” left out

[4] = Rat pharmacokinetics, intravenous administration; assay type: in vivo; design: AUC(0-inf): unit not given here; details: 5 mg/kg; for AUC(0-inf) / Cmax / half-life / clearance / Vd: rat, iv; for Cmax / half-life / clearance / Vd: plasma
Procedure: The pharmacokinetics of compound 1 was tested in rats after intravenous and oral administration. Two rats were administered 5 mg/kg compound 1 intravenously in a vehicle consisting of 7% Tween 80, 3% EtOH, 5% DMSO in saline. Two rats were administered 20 mg/kg compound 1 orally in a vehicle consisting of 5% DMSO, 0.5% Tween 80, 1% methylcellulose in water. The results are shown in Table 4 and FIGS. 3A-3B and 4A-4B.

O=C(Nc1ccc2sc(-c3ccc(F)c(F)c3)nc2c1)N1CC[C@H](F)C1 [Compound 1, (S)-2-(3,4-Difluorophenyl)-5-(3-fluoro-N-pyrrolidylamido)benzothiazole]
Microsome t1/2 (min) Mouse ([1]; Table 5): >60 min | Mouse microsomes, percentage of compound remaining ([1]; Table 12, after 60 min (where t1/2 > 60 min)): 73% | half-life at 3 μM ([1]; male, CD-1, liver microsomes, pH 7.4, mouse microsomes, read-out: microsomal half-life): > 1 h | half-life at 1.5 μM ([1]; male, CD-1, mouse, liver microsomes, pH 7.4, Table 12, 37° C., NADPH (1 mM), microsomes 0.5 mg/mL, test compounds 1.5 μM, read-out: Mouse microsomes t1/2): > 1 h | mice cured (cures) [2]: 5 of 5 and 5/5 | toxicity to the HepG2 cells (in words) (human hepatocytes HepG2): no detectable toxicity | EC50 (human hepatocytes HepG2; Homo sapiens, HepG2, read-out: HepG2 EC50): > 50 µM | EC90 (human hepatocytes HepG2; read-out: HepG2 EC90, concentration required to inhibit growth by 90%, human hepatocytes): > 50 µM | EC50 (Trypanosoma cruzi; Table 1, Trypanosoma cruzi, read-out: EC50): 0.118 µM | EC90 (Trypanosoma cruzi; Table 1, Trypanosoma cruzi, read-out: EC90): 0.178 µM | EC50 (Trypanosoma cruzi; Trypanosoma cruzi, Table 6, read-out: T. cruzi EC50): 0.0585 µM | EC50 (Trypanosoma cruzi; Trypanosoma cruzi, Table 10, read-out: T.cruzi EC50): 0.118 µM | EC90 (Trypanosoma cruzi; Trypanosoma cruzi, Table 10, read-out: T.cruzi EC90): 0.178 µM | EC50 (Leishmania amazonensis): > 10 µM | Average plasma levels ([3]; 1 h post dose 15): 23.1 ± 603 µM | Average plasma levels ([3]; 6 h post dose 15): 26.7 ± 7.1 µM | Average plasma levels ([3]; prior to dose 15 (pre-dose)): 15.8 ± 8.7 µM | mice cured (cures) (T. b. brucei TREU667): 5 of 5 and 5/5 | Tmax ([4]; Mean ± SEM (n = 2)): 5 min | Tmax ([4]; Rat 2): 5 min | Tmax ([4]; in vivo, Rat 1, read-out: Tmax (converted)): 5 min | AUC(0-inf) ([4]; in vivo, Mean ± SEM (n = 2)): 1440 | AUC(0-inf) ([4]; in vivo, Rat 1): 1380 | AUC(0-inf) ([4]; in vivo, Rat 2): 1500 | Cmax ([4]; Mean ± SEM (n = 2)): 11.7 µM | half-life ([4]; Mean ± SEM (n = 2), read-out: Apparent T1/2 (min) for steady state): 96.7 min | half-life ([4]; Mean ± SEM (n = 2), read-out: Apparent T1/2 (min) for terminal phase): 96.7 min | clearance ([4]; Mean ± SEM (n = 2), read-out: Plasma CL): 0.561 L/h/kg | Vd ([4]; Mean ± SEM (n = 2), read-out: Plasma Vz): 0.76 L/kg | Vd ([4]; Mean ± SEM, read-out: Plasma Vss): 1.31 L/kg | Cmax ([4]; Rat 1): 12.1 µM | half-life ([4]; Rat 1, read-out: Apparent T1/2 (min) for steady state): 88.5 min | half-life ([4]; Rat 1, read-out: Apparent T1/2 (min) for terminal phase): 88.5 min | clearance ([4]; Rat 1, read-out: Plasma CL): 0.618 L/h/kg | Vd ([4]; Rat 1, read-out: Plasma Vss): 1.32 L/kg | Vd ([4]; Rat 1, read-out: Plasma Vz): 0.882 L/kg | Cmax ([4]; Rat 2): 11.3 µM | half-life ([4]; Rat 2, read-out: Apparent T1/2 (min) for steady state): 105 min | half-life ([4]; Rat 2, read-out: Apparent T1/2 (min) for terminal phase): 105 min | clearance ([4]; Rat 2, read-out: Plasma CL): 0.503 L/h/kg | Vd ([4]; Rat 2, read-out: Plasma Vss): 1.3 L/kg | Vd ([4]; Rat 2, read-out: Plasma Vz): 0.639 L/kg
